Experimental data: patent publication US12576168B2, “Peptide PET/SPECT probes specific to oncoproteins in tumor extracellular matrix” (CASE WESTERN RESERVE UNIVERSITY, priority 2019, dated 2026)
Ends that are not written are not given here. * marks the point of attachment. DOTA = O=C(O)CN1CCN(CC(=O)O)CCN(CC(=O)*)CCN(CC(=O)O)CC1; AEEA = NCCOCCOCC(=O)O

Tests used:
Water solubility = format: physicochemical
EDB-FN [1] = target: T1, EDB-FN (Homo sapiens, UniProt P02751); test: ZD2 peptide binding to prostate tissue; parameters: from tissue; host or cells: High-grade and low-grade prostate tumour and normal tissue
[2] = test system: LNCaP human prostate cancer xenografts; test: PET/CT imaging of tracer uptake in LNCaP tumors of tumor-bearing mice; format: in vivo; details: 22 h after injection, 7.4 MBq (200 μCi) per mouse i.v., N=4
Protocol: (§1) The animal study has been approved by the Institutional Animal Care and Use Committee of the Case Western Reserve University (CWRU), […]. PC3 and LNCaP cells were acquired from the American Type Culture Collection (ATCC, Manassas, VA, USA) and cultured in Roswell Park Memorial Institute medium (Thermo Fisher Scientific, Waltham, MA) supplemented with 10% fetal bovine serum, 100 U/mL penicillin, and 0.1 mg/mL streptomycin in a humid incubator maintained at 37° C. and 5% CO2. Male athymic nude mice (4-6 weeks old) were acquired from the Case Comprehensive Cancer Center (Cleveland, OH, USA) and housed in the CWRU Animal Core Facility. Three million cells in high concentration Matrigel (Corning, Tewksbury, MA) were used for tumor inoculation. LNCaP cells were subcutaneously inoculated in the left flank of the mice. Four weeks later, PC3 cells were inoculated on the right flank of the same mice for PET imaging.
(§2) The radioisotope ^64Cu(II) was acquired from the University of Wisconsin-Madison (Madison, WI). The chelation of ZD2-PEG-DOTA with Cu(II) was first tested with cold CuCl2 in 0.1 N HCl aqueous solution under the same condition as radiolabeling. […] The formation of ZD2-DA-(Cu-DOTA) was verified by MALDI-TOF mass spectrometry (M+1: 1487.8, observed; 1486.04, calculated). […]

[3] = test system: PC3 human prostate cancer xenografts; test: PET/CT imaging of tracer uptake in PC3 tumors of tumor-bearing mice; format: in vivo
Protocol: as §1, §2

EDB-FN [4] = target: T1, EDB-FN; test: ZD2-Cy5.5 staining of human pancreatic specimens; format: binding; parameters: incubation of ZD2-Cy5.5 with tumor slides of the above tumor xenografts; from tissue; host or cells: Sections of BXPC3, Capan-1, Panc 10.05 and Panc-1 tumour xenografts from female nude mice; normal pancreas and muscle as controls
EDB-FN [5] = target: T1, EDB-FN; test: ZD2-Cy5.5 fluorescence binding to slides of human pancreatic cancer xenografts; parameters: incubation of ZD2-Cy5.5 with tumor slides of the above tumor xenografts; from tissue; host or cells: Sections of BXPC3, Capan-1, Panc 10.05 and Panc-1 tumour xenografts from female nude mice; normal pancreas and muscle as controls
Protocol: A ZD2 peptide (Thr-Val-Arg-The-Ser-Ala-Asp) targeted fluorescence tracer ZD2-Cy5.5 was synthesized according to a reported method to assess the binding of the peptide to EDB-FN in PaCa tumors. The binding specificity of ZD2 peptide to EDB-FN in pancreatic cancer has been tested by incubation of ZD2-Cy5.5 with tumor slides of the above tumor xenografts. […] ZD2 peptide is a promising targeting agent for specific binding of EDB-FN in PaCa tumors.

T1 sequence (P02751 32-2477): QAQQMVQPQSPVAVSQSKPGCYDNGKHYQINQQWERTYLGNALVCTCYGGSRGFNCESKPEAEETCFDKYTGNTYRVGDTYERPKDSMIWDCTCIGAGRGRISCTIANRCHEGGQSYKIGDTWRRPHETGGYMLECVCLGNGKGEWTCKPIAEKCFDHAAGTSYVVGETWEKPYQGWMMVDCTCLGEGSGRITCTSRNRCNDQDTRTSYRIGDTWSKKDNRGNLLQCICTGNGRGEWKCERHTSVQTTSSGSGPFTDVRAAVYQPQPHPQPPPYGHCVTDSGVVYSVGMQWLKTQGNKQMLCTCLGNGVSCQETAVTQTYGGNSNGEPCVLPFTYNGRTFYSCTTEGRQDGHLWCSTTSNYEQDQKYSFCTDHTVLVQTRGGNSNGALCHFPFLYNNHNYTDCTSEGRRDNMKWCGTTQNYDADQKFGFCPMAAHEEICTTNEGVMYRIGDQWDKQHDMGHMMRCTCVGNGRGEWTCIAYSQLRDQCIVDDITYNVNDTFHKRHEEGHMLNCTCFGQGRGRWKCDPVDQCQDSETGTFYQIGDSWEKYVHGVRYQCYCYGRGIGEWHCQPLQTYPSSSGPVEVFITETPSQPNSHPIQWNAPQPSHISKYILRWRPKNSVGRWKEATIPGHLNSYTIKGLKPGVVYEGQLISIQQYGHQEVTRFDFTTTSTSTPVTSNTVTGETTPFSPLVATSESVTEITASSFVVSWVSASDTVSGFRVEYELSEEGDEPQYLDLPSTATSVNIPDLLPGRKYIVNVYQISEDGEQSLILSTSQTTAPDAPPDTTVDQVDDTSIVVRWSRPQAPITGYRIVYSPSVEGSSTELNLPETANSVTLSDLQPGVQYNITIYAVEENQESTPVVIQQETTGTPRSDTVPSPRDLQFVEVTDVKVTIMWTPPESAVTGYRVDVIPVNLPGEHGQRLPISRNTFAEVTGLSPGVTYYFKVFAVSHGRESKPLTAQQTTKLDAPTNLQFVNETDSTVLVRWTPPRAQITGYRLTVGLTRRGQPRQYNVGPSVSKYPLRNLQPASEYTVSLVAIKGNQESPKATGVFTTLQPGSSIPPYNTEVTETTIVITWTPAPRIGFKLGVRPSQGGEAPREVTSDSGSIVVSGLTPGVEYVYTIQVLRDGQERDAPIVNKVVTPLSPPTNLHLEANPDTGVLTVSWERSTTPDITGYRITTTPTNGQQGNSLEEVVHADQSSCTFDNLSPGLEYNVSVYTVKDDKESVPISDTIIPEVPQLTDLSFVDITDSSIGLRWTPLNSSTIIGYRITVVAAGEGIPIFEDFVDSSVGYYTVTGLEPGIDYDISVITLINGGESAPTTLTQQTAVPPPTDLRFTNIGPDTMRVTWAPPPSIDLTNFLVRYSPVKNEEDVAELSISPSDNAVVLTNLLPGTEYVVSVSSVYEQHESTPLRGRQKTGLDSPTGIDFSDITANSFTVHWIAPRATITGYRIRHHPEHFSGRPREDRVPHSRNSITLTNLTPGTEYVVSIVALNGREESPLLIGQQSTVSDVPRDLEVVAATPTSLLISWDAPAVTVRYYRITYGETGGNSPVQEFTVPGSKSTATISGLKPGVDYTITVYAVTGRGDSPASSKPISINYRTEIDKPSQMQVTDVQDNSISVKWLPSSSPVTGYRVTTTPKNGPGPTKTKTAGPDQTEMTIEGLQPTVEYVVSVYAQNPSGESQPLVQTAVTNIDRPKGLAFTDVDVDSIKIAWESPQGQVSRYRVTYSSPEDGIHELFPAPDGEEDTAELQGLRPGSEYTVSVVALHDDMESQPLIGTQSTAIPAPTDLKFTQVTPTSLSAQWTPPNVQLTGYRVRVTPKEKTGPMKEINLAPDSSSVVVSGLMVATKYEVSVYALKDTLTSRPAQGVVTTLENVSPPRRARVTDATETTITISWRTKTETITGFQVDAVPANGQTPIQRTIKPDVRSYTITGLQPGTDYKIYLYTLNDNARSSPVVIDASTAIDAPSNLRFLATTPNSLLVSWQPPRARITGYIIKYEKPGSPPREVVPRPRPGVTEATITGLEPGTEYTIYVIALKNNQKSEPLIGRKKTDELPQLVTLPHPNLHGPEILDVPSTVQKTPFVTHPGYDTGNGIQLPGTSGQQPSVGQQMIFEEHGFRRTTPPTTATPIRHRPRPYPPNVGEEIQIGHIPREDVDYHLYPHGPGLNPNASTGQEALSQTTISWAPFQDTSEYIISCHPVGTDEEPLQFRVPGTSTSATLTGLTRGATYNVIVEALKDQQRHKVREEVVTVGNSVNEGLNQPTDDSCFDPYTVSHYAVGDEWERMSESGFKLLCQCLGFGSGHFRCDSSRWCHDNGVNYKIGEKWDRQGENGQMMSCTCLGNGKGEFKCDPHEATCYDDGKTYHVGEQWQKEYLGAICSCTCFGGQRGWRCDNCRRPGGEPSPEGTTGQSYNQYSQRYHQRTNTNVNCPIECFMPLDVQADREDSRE

Substance: TVRTSAD-OH [ZD2 peptide, Thr-Val-Arg-Thr-Ser-Ala-Asp]
- water solubility (Water solubility): highly water-soluble
- binding in normal tissue (EDB-FN [1]): nonbinding
- binding to low-grade tumor (EDB-FN [1]): weak binding affinity
- binding toward high-grade prostate tumor (EDB-FN [1]): strong binding affinity

Substance: ZD2-DA-(^64Cu-DOTA): ZD2 peptide (TVRTSAD) linked via two repeats of 8-amino-3,6-dioxaoctanoic acid to DOTA, complexed with 64Cu ({DOTA-AEEA-AEEA}-TVRTSAD; also: 64Cu chelated by DOTA)
- accumulation of PET tracer in LNCaP tumors (ROI) [2]: 3213±1511 Bq/mL
- accumulation of PET tracer in PC3 tumors compared to LNCaP tumors ([3]; 22 h, P<0.05): over two-folds higher
- accumulation of PET tracer in PC3 tumors (ROI) ([3]; 22 h after injection, 7.4 MBq (200 μCi) per mouse i.v., N=4): 7711±1994 Bq/mL

Substance: ZD2-Cy5.5: ZD2 peptide targeted fluorescence tracer synthesized according to a reported method (TVRTSAD; also: Cy5.5 fluorescence tracer attached, site not given here)
- fluorescence staining of precancerous pancreatic intraepithelial neoplasia (EDB-FN [4]; human PanIN): some fluorescence intensity
- fluorescence staining of normal pancreas (EDB-FN [4]; human normal pancreas): little fluorescence
- fluorescence staining of human PaCa specimen (EDB-FN [4]; human pancreatic cancer): strong red fluorescence
- binding to EDB-FN in PaCa after pre-incubation with BC-1 anti-EDB-FN monoclonal antibody (EDB-FN [5]; BC-1/ZD2): blocked
- binding to normal pancreas and muscle (EDB-FN [5]; tissue slides): No significant binding
- binding to BXPC3, Capan-1, Panc 10.05 and Panc-1 tumor tissues (EDB-FN [5]; tumor xenograft slides): strong binding
